Experimental findings from US20080234381A1, “Novel Trifluoromethoxy-Substituted Aryl Anilides” (Novo Nordisk A/S, priority 2005, published 2008) are described below.

Consider `N#Cc1ccc(NC(=O)c2c(O)ccc3ccccc23)c(OC(F)(F)F)c1` [Example 2, 2-Hydroxy-naphthalene-1-carboxylic acid(4-cyano-2-trifluoromethoxy-phenyl)-amide], for which the melting point turned out to be 169 °C.

Regarding `N#Cc1ccc(NC(=O)c2cc3ccccc3cc2O)c(OC(F)(F)F)c1` [Example 3, 3-Hydroxy-naphthalene-2-carboxylic acid(4-cyano-2-trifluoromethoxy-phenyl)-amide], the melting point worked out at 248 °C.

In turn, `N#Cc1ccc(NC(=O)c2ccc3ccccc3c2O)c(OC(F)(F)F)c1` [Example 1, 1-Hydroxy-naphthalene-2-carboxylic acid(4-cyano-2-trifluoromethoxy-phenyl)-amide] gave a melting point of 178 °C.
